The results in this text go back to patent EP0291321A2, “Element and method for determination of creatinine or creatine” (EASTMAN KODAK COMPANY (a New Jersey corporation), priority 1987, dated 1988).

The target of this assay is T1, sarcosine oxidase (Bacillus sp., UniProt P40859).
T1 sequence (P40859 1-390): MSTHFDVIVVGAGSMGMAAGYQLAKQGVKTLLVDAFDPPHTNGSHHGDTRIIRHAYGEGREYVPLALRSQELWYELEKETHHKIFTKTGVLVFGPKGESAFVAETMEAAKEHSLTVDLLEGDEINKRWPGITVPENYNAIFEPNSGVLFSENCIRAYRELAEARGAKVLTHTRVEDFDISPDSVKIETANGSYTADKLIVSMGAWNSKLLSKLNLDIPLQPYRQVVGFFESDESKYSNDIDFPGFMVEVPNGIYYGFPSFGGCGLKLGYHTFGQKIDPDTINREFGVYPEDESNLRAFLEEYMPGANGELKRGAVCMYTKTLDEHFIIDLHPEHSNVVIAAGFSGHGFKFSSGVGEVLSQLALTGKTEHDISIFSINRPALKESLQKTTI
Kind of assay: sarcosine oxidase activity on substrate at various pH (rate of change in absorbance per minute). The assay is classed as biochemical. The following applies: for Ratio (B/A): rate with N-ethyl glycine divided by rate with sarcosine. Here is the method: Separate assays at various pH were conducted to determine the rate of change in absorbance per minute (ΔA/min) for sarcosine oxidase activity on its substrate sarcosine, and on N-ethyl glycine. The assay is based on the following reactions. [drawing 1]

On to `CCNCC(=O)O` [N-Ethyl Glycine, N-ethyl glycine], for which the “rate of change in absorbance per minute (ΔA/min) for sarcosine oxidase activity” value is recorded as 0.017 ΔA/min (pH 6.5), 0.053 ΔA/min (pH 7.0) and 0.134 ΔA/min (pH 7.5). The “Ratio (B/A)” value is listed as 0.011 (pH 6.5), 0.024 (pH 7.0) and 0.048 (pH 7.5).
Consider `CNCC(=O)O` [Sarcosine, sarcosine], for which the “rate of change in absorbance per minute (ΔA/min) for sarcosine oxidase activity” value is, setting by setting: (pH 6.5) 1.56 ΔA/min; (pH 7.0) 2.20 ΔA/min; (pH 7.5) 2.76 ΔA/min.
